Data reported in BindingDB's records for doi:10.7270/Q25719FH (Srmlsc, 2007).
pEC50: −log10 of the molar value.

Biological target: Multidrug resistance-associated protein 1 (Homo sapiens, UniProt P33527)
Test: viability protection against doxorubicin, MRP-1 line – cell-based, doxorubicin EC50 shift, dose response (AID 844)

Multidrug resistance-associated protein 1, sequence (P33527 whole entry): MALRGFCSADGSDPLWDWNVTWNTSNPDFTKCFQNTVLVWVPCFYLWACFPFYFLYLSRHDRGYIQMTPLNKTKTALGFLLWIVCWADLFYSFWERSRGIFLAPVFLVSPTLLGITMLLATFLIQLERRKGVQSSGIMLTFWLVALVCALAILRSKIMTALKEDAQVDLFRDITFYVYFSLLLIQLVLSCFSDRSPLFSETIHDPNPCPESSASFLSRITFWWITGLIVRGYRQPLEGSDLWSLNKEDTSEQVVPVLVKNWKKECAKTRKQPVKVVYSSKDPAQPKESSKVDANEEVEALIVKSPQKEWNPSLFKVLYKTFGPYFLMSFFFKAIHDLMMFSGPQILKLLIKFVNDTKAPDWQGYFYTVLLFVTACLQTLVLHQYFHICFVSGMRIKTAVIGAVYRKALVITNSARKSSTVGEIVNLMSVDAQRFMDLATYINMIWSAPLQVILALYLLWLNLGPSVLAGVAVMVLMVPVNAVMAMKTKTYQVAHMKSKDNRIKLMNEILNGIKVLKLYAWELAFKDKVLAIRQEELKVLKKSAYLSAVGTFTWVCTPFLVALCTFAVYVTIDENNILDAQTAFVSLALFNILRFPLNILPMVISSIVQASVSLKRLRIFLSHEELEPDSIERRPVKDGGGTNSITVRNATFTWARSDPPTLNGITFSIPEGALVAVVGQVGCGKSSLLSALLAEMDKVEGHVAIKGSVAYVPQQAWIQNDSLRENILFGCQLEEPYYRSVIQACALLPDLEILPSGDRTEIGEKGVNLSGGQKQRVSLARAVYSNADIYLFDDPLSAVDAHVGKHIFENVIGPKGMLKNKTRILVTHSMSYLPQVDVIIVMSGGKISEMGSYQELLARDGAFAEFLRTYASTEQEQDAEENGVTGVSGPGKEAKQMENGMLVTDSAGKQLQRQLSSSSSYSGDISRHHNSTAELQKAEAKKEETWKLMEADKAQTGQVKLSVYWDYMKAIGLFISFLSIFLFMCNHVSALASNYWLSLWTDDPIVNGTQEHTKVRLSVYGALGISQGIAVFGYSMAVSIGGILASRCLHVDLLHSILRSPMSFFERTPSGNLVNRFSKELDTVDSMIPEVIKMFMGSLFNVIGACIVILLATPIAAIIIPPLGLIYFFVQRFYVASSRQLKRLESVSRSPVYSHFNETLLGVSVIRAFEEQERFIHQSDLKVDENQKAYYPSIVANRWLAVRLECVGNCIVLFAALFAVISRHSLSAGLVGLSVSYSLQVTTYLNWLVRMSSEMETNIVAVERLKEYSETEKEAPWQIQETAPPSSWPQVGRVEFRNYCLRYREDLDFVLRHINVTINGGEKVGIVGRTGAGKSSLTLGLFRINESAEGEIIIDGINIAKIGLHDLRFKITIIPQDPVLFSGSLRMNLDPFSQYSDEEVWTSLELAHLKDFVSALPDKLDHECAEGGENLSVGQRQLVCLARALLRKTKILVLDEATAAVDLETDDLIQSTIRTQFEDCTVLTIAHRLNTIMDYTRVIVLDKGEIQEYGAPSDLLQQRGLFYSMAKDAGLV

Question: How did the pEC50 turn out when `N#CC(C#N)N=Nc1ccc(S(=O)(=O)N2CCCC2)cc1` [2-[(4-pyrrolidin-1-ylsulfonylphenyl)hydrazinylidene]propanedinitrile] was run?
Answer: 5.23

Question: `O=C1CC(=O)CC(c2ccc(Cl)cc2)C1` [5-(4-chlorophenyl)-3-hydroxy-1-cyclohex-2-enone] was tested. Which pEC50 did it give?
Answer: 5.25

Question: `Cc1cc(N=NCc2ccccc2Cl)nc(NCc2ccccc2)n1` [2-N-benzyl-4-N-[(2-chlorophenyl)methylideneamino]-6-methylpyrimidine-2,4-diamine] was tested. Which pEC50 did it give?
Answer: 5.97

Question: `O=[N+]([O-])c1ccc(N=NCc2ccccc2)c(F)c1` [2-fluoranyl-4-nitro-N-[(phenylmethylidene)amino]aniline] was tested. Which pEC50 did it give?
Answer: 5.46

Question: How did the pEC50 turn out when `Oc1nc(Nc2ccccc2)sc1Cc1cccc(Cl)c1Cl` [2-anilino-5-(2,3-dichlorobenzyl)-2-thiazolin-4-one] was run?
Answer: 5.18

Question: `COc1cc(C2NC(=O)N=C(C)C2C(=O)OCc2ccc(C)cc2)cc(OC)c1O` (configuration not stated) [(4-methylphenyl)methyl 4-(3,5-dimethoxy-4-oxidanyl-phenyl)-6-methyl-2-oxidanylidene-3,4-dihydro-1H-pyrimidine-5-carboxylate] was tested. Which pEC50 did it give?
Answer: 5.44

Question: `C=CCN(C(=O)Nc1ccc(Cl)cc1)c1cc(O)n(-c2ccc(OC)cc2)c1O` [1-allyl-3-(4-chlorophenyl)-1-[2,5-diketo-1-(4-methoxyphenyl)pyrrolidin-3-yl]urea] was tested. Which pEC50 did it give?
Answer: 5.31

Question: `COc1ccc(CN=Nc2cc(OC)ncn2)cc1` [6-methoxy-N-[(4-methoxyphenyl)methylideneamino]-4-pyrimidinamine] was tested. Which pEC50 did it give?
Answer: 5.51

Question: `Oc1nc(Nc2ccc(Cl)cc2)sc1Cc1cccc(Cl)c1Cl` [2-(4-chloroanilino)-5-(2,3-dichlorobenzyl)-2-thiazolin-4-one] was tested. Which pEC50 did it give?
Answer: 5.19

Question: How did the pEC50 turn out when `CCN(CC)S(=O)(=O)c1ccc(N=NC(C#N)C#N)cc1` [4-[2-(dicyanomethylene)hydrazino]-N,N-diethylbenzenesulfonamide] was run?
Answer: 5.43

Question: `COc1ccc(-n2c(O)c(CC(=O)Nc3ccc(F)cc3)n(CCc3cccs3)c2=O)cc1` [2-[2,5-diketo-1-(4-methoxyphenyl)-3-[2-(2-thienyl)ethyl]imidazolidin-4-yl]-N-(4-fluorophenyl)acetamide] was tested. Which pEC50 did it give?
Answer: 5.36

Question: `Oc1nc(Nc2ccc(Cl)cc2)sc1Cc1cc(Cl)ccc1Cl` [2-(4-chloroanilino)-5-(2,5-dichlorobenzyl)-2-thiazolin-4-one] was tested. Which pEC50 did it give?
Answer: 5.23

Question: `CCOc1ccc2c(c1)C(N=O)C(=O)N2C` (configuration not stated) [(3E)-5-ethoxy-1-methyl-1H-indole-2,3-dione 3-oxime] was tested. Which pEC50 did it give?
Answer: 5.50

Question: `CCSC(C)CC1Cc2onc(CC)c2C(N=O)C1` (configuration not stated) [3-ethyl-6-[2-(ethylthio)propyl]-6,7-dihydro-5H-1,2-benzoxazol-4-one oxime] was tested. Which pEC50 did it give?
Answer: 5.16

Question: With `O=C(Cc1sc(=O)n(-c2ccccc2)c1O)Nc1ccccc1` [2-(2,4-diketo-3-phenyl-thiazolidin-5-yl)-N-phenyl-acetamide] as the compound, how does the pEC50 read?
Answer: 5.19

Question: With `COC(=O)C1=C(C)N=C(C)C(C(=O)OC)C1c1ccccc1OCc1c(C)n[o+]n1[O-]` (configuration not stated) as the compound, how does the pEC50 read?
Answer: 5.27

Question: `CCc1ccc(C(C)N=Nc2cc(Cl)nc(C)n2)cc1` (configuration not stated) [(6-chloro-2-methyl-pyrimidin-4-yl)-[1-(4-ethylphenyl)ethylideneamino]amine] was tested. Which pEC50 did it give?
Answer: 5.43

Question: With `Cc1cc(=O)oc2c1ccc1oc(C(N=O)c3ccccc3)c(C)c12` (configuration not stated) [4,9-dimethyl-8-(N-oxidanyl-C-phenyl-carbonimidoyl)furo[2,3-h]chromen-2-one] as the compound, how does the pEC50 read?
Answer: 5.15

Question: How did the pEC50 turn out when `O=C1c2ccccc2SC1/C=N/c1cc([N+](=O)[O-])ccc1O` (configuration not stated) [(2Z)-2-[[(5-nitro-2-oxidanyl-phenyl)amino]methylidene]-1-benzothiophen-3-one] was run?
Answer: 6.34

Question: `C=CCc1c(C)nc(-c2ccccc2)nc1N=NC(C)c1ccc(N)cc1` (configuration not stated) [(5-allyl-6-methyl-2-phenyl-pyrimidin-4-yl)-[1-(4-aminophenyl)ethylideneamino]amine] was tested. Which pEC50 did it give?
Answer: 5.16

Question: `COc1ccc(-n2c(O)cc(N3CCC(n4c(=O)[nH]c5ccccc54)CC3)c2O)cc1` was tested. Which pEC50 did it give?
Answer: 5.25

Question: With `CCN(C1CCCCC1)S(=O)(=O)c1cc(C)ccc1OC` [MLS000028538] as the compound, how does the pEC50 read?
Answer: 5.48
